In ChEMBL document CHEMBL1201862, “PubChem BioAssay data set” (2004):
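Values below derive from 48-hour exposures of cells grown in 96-well plates, with endpoints linearly interpolated between the two concentrations bracketing the appropriate inhibition level. GI50 = concentration required for 50% inhibition of growth.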 Active and inactive are the calls of the source. Rule as the data show it: active = GI50 up to about 1.1 µM and inactive = higher.

Key:
Assay in all cases: NCI tumour cell line growth inhibition, 48 h
HT-29 = system: HT-29
HL-60 = system: HL-60
TK-10 = system: TK-10
SK-MEL-28 = system: SK-MEL-28
M14 = system: M14
SNB-75 = system: SNB-75
A498 = system: A498
CAKI-1 = system: CAKI-1
HCT-116 = system: HCT-116
SR = system: SR
OVCAR-4 = system: OVCAR-4
LOX IMVI = system: LOX IMVI
HCT-15 = system: HCT-15
SW-620 = system: SW-620
PC-3 = system: PC-3
A549 = system: A549
NCI-H522 = system: NCI-H522
MCF7 = system: MCF7

Measured: GI50

Cc1ncc([N+](=O)[O-])n1CCNC(=O)CCCn1cnc([N+](=O)[O-])n1
inactive: HT-29 > 100 µM | HL-60 > 100 µM | TK-10 > 45.8 µM | SK-MEL-28 > 100 µM | M14 > 100 µM | SNB-75 98.6 µM | A498 > 84.3 µM | CAKI-1 > 100 µM | HCT-116 > 100 µM | SR > 100 µM | OVCAR-4 > 100 µM | LOX IMVI > 100 µM | SW-620 > 71.8 µM | PC-3 > 100 µM | A549 > 78.3 µM | NCI-H522 > 100 µM | MCF7 > 100 µM
> 76.6 µM: HCT-15

N#CCCC1(CCC#N)CCCCCCCCC(CCC#N)(CCC#N)C(O)C1O (configuration not stated)
> 100 µM: HCT-15
inactive: HT-29 > 100 µM | TK-10 74.8 µM | SK-MEL-28 > 100 µM | M14 > 100 µM | SNB-75 > 100 µM | A498 94.6 µM | CAKI-1 > 100 µM | HCT-116 > 100 µM | OVCAR-4 > 100 µM | LOX IMVI > 100 µM | SW-620 > 100 µM | PC-3 > 100 µM | A549 73.6 µM | NCI-H522 30.3 µM | MCF7 > 100 µM

O=c1c(Br)cc2c(-c3ccccc3)c3cc(Br)c(O)c(Br)c3oc-2c1Br
56 µM: HCT-15
inactive: HT-29 21.7 µM | HL-60 51.6 µM | TK-10 > 100 µM | SK-MEL-28 > 100 µM | M14 > 100 µM | A498 27.3 µM | CAKI-1 > 100 µM | HCT-116 44.8 µM | OVCAR-4 22.3 µM | LOX IMVI 37.4 µM | SW-620 > 100 µM | PC-3 > 100 µM | A549 > 100 µM | MCF7 79.3 µM

C=CC[C@@]12CCC(=O)C=C1CCCC2=O
inactive: HT-29 > 100 µM | HL-60 > 100 µM | TK-10 > 100 µM | SK-MEL-28 > 100 µM | M14 > 100 µM | A498 > 100 µM | CAKI-1 > 100 µM | HCT-116 > 100 µM | SR > 100 µM | OVCAR-4 > 100 µM | LOX IMVI > 100 µM | SW-620 > 100 µM | PC-3 > 100 µM | A549 > 100 µM | NCI-H522 > 100 µM | MCF7 > 100 µM
> 100 µM: HCT-15

CC1CC(N)=C(C#N)C1(C#N)C#N (configuration not stated)
28.4 µM: HCT-15
inactive: HT-29 > 100 µM | HL-60 > 100 µM | TK-10 > 100 µM | M14 > 100 µM | SNB-75 74.3 µM | A498 > 100 µM | CAKI-1 24.3 µM | HCT-116 > 100 µM | LOX IMVI > 100 µM | SW-620 > 100 µM | PC-3 > 100 µM | A549 > 100 µM | NCI-H522 > 100 µM | MCF7 > 100 µM

COCc1cc2c(cc1/C(=C/[N+](=O)[O-])CS(=O)(=O)c1ccccc1)OCO2
> 100 µM: HCT-15
inactive: HT-29 > 100 µM | HL-60 > 100 µM | TK-10 > 100 µM | SK-MEL-28 > 100 µM | M14 > 100 µM | SNB-75 > 100 µM | A498 > 100 µM | CAKI-1 > 100 µM | HCT-116 > 100 µM | SR > 100 µM | LOX IMVI > 100 µM | SW-620 > 100 µM | A549 > 100 µM | NCI-H522 43.6 µM | MCF7 > 100 µM

O=C(O)C1C2C=CC(O2)C1C(=O)NCc1ccncc1 (configuration not stated)
inactive: HT-29 > 100 µM | HL-60 > 100 µM | TK-10 > 100 µM | SK-MEL-28 > 100 µM | M14 > 100 µM | SNB-75 > 100 µM | A498 > 100 µM | CAKI-1 > 100 µM | HCT-116 > 100 µM | SR > 100 µM | OVCAR-4 > 100 µM | LOX IMVI > 100 µM | SW-620 > 100 µM | PC-3 > 100 µM | A549 > 100 µM | NCI-H522 > 100 µM | MCF7 > 100 µM

COc1ccc2nc(-c3ccccn3)cc(O)c2c1
inactive: HT-29 42.8 µM | HL-60 34 µM | TK-10 96.4 µM | SK-MEL-28 35.5 µM | M14 24.2 µM | SNB-75 18.4 µM | OVCAR-4 72.3 µM | LOX IMVI 41.2 µM | SW-620 32 µM | A549 44 µM | NCI-H522 20.4 µM

COc1ccc(N[S+]([O-])CCc2ccccc2)cc1 (configuration not stated)
inactive: HT-29 > 100 µM | HL-60 > 100 µM | TK-10 > 100 µM | SK-MEL-28 > 100 µM | M14 > 100 µM | SNB-75 > 100 µM | CAKI-1 > 100 µM | HCT-116 > 100 µM | SR > 100 µM | LOX IMVI > 100 µM | SW-620 > 100 µM | A549 > 100 µM | NCI-H522 > 100 µM | MCF7 > 100 µM
> 100 µM: HCT-15

[O-][S+](CCc1ccccc1)Nc1ccccc1 (configuration not stated)
> 100 µM: HCT-15
inactive: HT-29 > 100 µM | HL-60 > 100 µM | TK-10 > 100 µM | SK-MEL-28 > 100 µM | M14 > 100 µM | SNB-75 > 100 µM | CAKI-1 > 100 µM | HCT-116 > 100 µM | SR > 100 µM | LOX IMVI > 100 µM | SW-620 > 100 µM | PC-3 > 100 µM | A549 > 100 µM | NCI-H522 > 100 µM | MCF7 > 100 µM

[N-]=[N+]=NC1C(Br)C(=O)NC(=O)N1[C@H]1C[C@H](O)[C@@H](CO)O1 (some centres not stated)
inactive: HT-29 > 100 µM | HL-60 > 100 µM | TK-10 > 100 µM | SK-MEL-28 > 100 µM | M14 > 100 µM | SNB-75 > 100 µM | A498 > 100 µM | OVCAR-4 > 100 µM | LOX IMVI > 100 µM | SW-620 > 100 µM | A549 > 100 µM | NCI-H522 > 100 µM

COc1cccc(N(CN2C(=O)CCC2OC)C(C)=O)c1 (configuration not stated)
> 100 µM: HCT-15
inactive: HT-29 > 100 µM | HL-60 22.6 µM | TK-10 > 100 µM | SK-MEL-28 > 100 µM | M14 > 100 µM | SNB-75 > 100 µM | A498 > 100 µM | CAKI-1 > 100 µM | HCT-116 > 100 µM | SR > 100 µM | OVCAR-4 > 100 µM | LOX IMVI > 100 µM | SW-620 > 100 µM | PC-3 > 100 µM | A549 > 100 µM | MCF7 > 100 µM

CSc1ncnc2c1ncn2CCC(=O)OC(C)(C)C
inactive: HT-29 > 100 µM | HL-60 > 100 µM | TK-10 > 100 µM | SK-MEL-28 > 100 µM | M14 > 100 µM | SNB-75 > 100 µM | A498 > 100 µM | CAKI-1 > 100 µM | HCT-116 > 100 µM | SR > 100 µM | OVCAR-4 > 100 µM | LOX IMVI > 100 µM | SW-620 > 100 µM | PC-3 > 100 µM | A549 > 100 µM | NCI-H522 > 100 µM | MCF7 > 100 µM
